Data reported in article PMC9861858, “Stereoselective Synthesis and Antiproliferative Activities of Tetrafunctional Diterpene Steviol Derivatives” (International Journal of Molecular Sciences, 2023).
≈ marks a conversion by molar mass, not a printed value.

Tests used:
[1] = Kinetic aqueous solubility; format: physicochemical; details: phosphate buffered saline with 5% DMSO, aqueous with cosolvent or surfactant or cyclodextrin, kinetic from dmso stock; after 2 h, at 37 °C in PBS, pH 7.4, 5% DMSO; target concentration 500 μM; mean ± S.E.M, n = 3
Procedure: (§1) Filtrates and calibration solutions (5–500 μ M) of the kinetic solubility study and starting donor and acceptor solutions of the PAMPA-GI study were investigated by HPLC-DAD-MS. LC-MS analysis was performed using a Waters 2795 HPLC with a Waters 2487 DAD detector coupled with a Micromass Quattro Ultima TMPt quadrupol mass spectrometer equipped with an ESI source. Measurements were performed on a Waters XSelect C18 (150 × 4.6 mm; 3.5 μm) column with a […] eluent flow rate and the temperature set at 40 °C. The composition of eluent A was MilliQ water with 0.1% formic acid, and that of eluent B was an acetonitrile and MilliQ water mixture (95:5, v/v), also with 0.1% formic acid. The following linear gradient program was used: 0–6 min, 10–100% B; this was held for 3 min, then from 9.01 min on, back to the starting composition of 10% B–90% A. The injection volume was 10 μL for each sample. Chromatographic profiles were registered at dual wavelength, 220 and 240 nm. The mass spectrometer was used in negative ion mode for samples 2, 3 and 4b, and in positive ion mode for other samples. The operating parameters of the MS were: Mass range of m/z 150–700. Nitrogen gas flow rate was 350 L/h, temperature of 350 °C and pressure of 6 bar. The quadrupol temperature was 120 °C, and the capillary voltage was 2.5 kV. Fragmentor’s voltage of 60 V.
(§2) Intestinal (GI) permeability was determined by using an intestinal-specific parallel artificial membrane permeability assay (PAMPA-GI [36]]). […] All solutions were filtered by MultiScreen HTS Vacuum Manifold (Merck Ltd., Budapest, Hungary) after the incubation period. The target concentration was 500 μM for every sample investigated. The intestinal-specific effective permeability of the samples was determined by PAMPA-GI. To prepare starting solutions for a 96-well donor plate, 15 μLs of the 10 mM DMSO stock solution of investigation compounds and 285 μL pH 6.5 phosphate buffer solution were mixed. These solutions were left in a shaking incubator (300 rpm) at 25 °C for 1 h. Meanwhile, a 96-well acceptor plate was filled with 300 μL of pH 7.4 PBS buffer solution containing 5% DMSO. The intestinal-specific artificial membrane was prepared the following way: the hydrophobic filter material of the donor plate was coated with a mixture of phosphatidylcholine/cholesterol = 2:1 (5 μL, 4 % (w/v) in dodecane). After that, all donor wells were filled with 150 μL of the starting donor solutions, and they were carefully placed on the acceptor plate and incubated at 37 °C for 4 h. After the end of the incubation period the donor and acceptor plates were separated carefully. A total of 150 μL of the donor, acceptor and the starting donor solutions were sampled and analysed with HPLC-DAD-MS. The effective permeability and membrane retention of drugs were calculated using the following equations: Pe=−2.303/A·(t−τss)·1/1+rv·lg[−rv+(1+rv/1−MR)·]CD(t)/CD(0) MR=1−CD(t)/CD(0)−VA·CA(t)/VD·CD(0) where Pe is the effective permeability coefficient (cm/s), A is the filter area (0.3 cm^2), VD and VA are the volumes in the donor (0.15 cm^3) and acceptor phase (0.3 cm^3), t is the incubation time (s), τSS is the time to reach steady-state (s), CD(t) is the concentration of the compound in the donor phase at time point t (mol/cm^3), CD(0) is the concentration of the compound in the donor phase at time point zero (mol/cm^3), rv is the aqueous compartment volume ratio (VD/VA), MR is the membrane retention factor.

[2] = system: human cancer cell lines (HeLa, SiHa, A2780, MCF-7 and MDA-MB-231); test: MTT antiproliferative assay, whole cancer cell panel; format: cell-based; details: 10 and 30 μM
Procedure: (§3) The in vitro antiproliferative activities of the synthesised aminotriols 5–18 against a panel of different human cancer cell lines of gynecological origin, including cervical (SiHA and HeLa), breast (MCF7 and MDA-MB-231), ovary (A2780) cancers and NIH/3T3 healthy fibroblasts, were assayed by the MTT method. Cisplatin, a clinically applied anticancer agent was used as a reference compound, and the results are summarised in Figure 3 and Table S1 in the Supplementary Materials.
(§4) The growth-inhibitory effects of the presented terpenes were determined by a standard MTT [3-(4,5-dimethylthiazol2-yl)-2,5-diphenyltetrazolium bromide] assay against […] human cancer cell lines (cervical cancer HeLa and SiHa cell lines, breast cancer MCF-7 and MDA-MB-231 and ovarian cancer A2780). Murine embryonal fibroblast cells (NIH/3T3) were used to determine selectivity. All cell lines were purchased from the European Collection of Cell Cultures (Salisbury, UK). The cells were cultivated in Eagle’s minimal essential medium supplemented with 10% fetal bovine serum, 1% non-essential amino acids, and 1% Antibiotic-Antimycotic complex (penicillin, streptomycin, amphotericin B) at 37 °C in a humidified atmosphere containing 5% CO2. All media and supplements were purchased from Lonza Group Ltd. (Basel, Switzerland). Cancer cells were seeded into 96-well plates (5000 cells/well) after an overnight incubation, and the test compounds were added at two different concentrations (10 μM and 30 μM) and incubated for another 72 h under cell-culturing conditions. Finally, 20 μL of a 5 mg/mL MTT solution was added to each well, and the contents were incubated for a further 4 h. The medium was removed, and the precipitated formazan crystals were dissolved in DMSO by shaking at 37 °C for 60 min. The absorbance was measured at 545 nm by using a microplate reader (SPECTROStar Nano, BMG Labtech, Offenburg, Germany). Clinically utilised anticancer agent cisplatin (Ebewe GmbH, Unterach, Austria) was included as a reference molecule. Calculations were performed using the GraphPad Prism 9 software (GraphPad Software Inc., San Diego, CA, USA).

HeLa cells = test: MTT antiproliferative assay, HeLa; format: cell-based, human; details: for inhibition at 10 µM / inhibition at 30 µM: Homo sapiens, HeLa, 72 h, values <20% considered negligible, read-out: Growth inhibition (%) ± SEM, HeLa
Procedure: as §3, §4

SiHa cells = test: MTT antiproliferative assay, SiHa; format: cell-based, human; details: Homo sapiens, SiHa, 72 h, values <20% considered negligible, read-out: Growth inhibition (%) ± SEM, SiHa
Procedure: as §3, §4

NIH/3T3 fibroblasts = test: MTT assay on fibroblasts (selectivity); format: cell-based, murine; details: Mus musculus, 72 h, values <20% considered negligible, read-out: Growth inhibition (%) ± SEM, NIH/3T3; for inhibition at 10 µM: NIH3T3, 10 μM; for inhibition at 30 µM: NIH3T3, 30 μM
Procedure: as §3, §4

[3] = Intestinal-specific parallel artificial membrane permeability assay (PAMPA-GI); format: in vitro ADME; details: gradient pH system (pH donor 6.5 → pH acceptor 7.4) after 4 h, at 37 °C; mean ± S.E.M, n = 3
Procedure: as §1, §2

MCF-7 cells = test: MTT antiproliferative assay, MCF-7; format: cell-based, human; details: Homo sapiens, 72 h, values <20% considered negligible, read-out: Growth inhibition (%) ± SEM, MCF-7; for inhibition at 10 µM: MCF7, 10 μM; for inhibition at 30 µM: MCF7, 30 μM
Procedure: as §3, §4

MDA-MB-231 cells = test: MTT antiproliferative assay, MDA-MB-231; format: cell-based, human; details: Homo sapiens, 72 h, values <20% considered negligible, read-out: Growth inhibition (%) ± SEM, MDA-MB-231; for inhibition at 10 µM: MDA-MB-231, 10 μM; for inhibition at 30 µM: MDA-MB-231, 30 μM
Procedure: as §3, §4

A2780 cells = test: MTT antiproliferative assay, A2780; format: cell-based, human; details: Homo sapiens, 72 h, values <20% considered negligible, read-out: Growth inhibition (%) ± SEM, A2780; for inhibition at 10 µM: A2780, 10 μM; for inhibition at 30 µM: A2780, 30 μM
Procedure: as §3, §4

In the case of `COC(=O)[C@]1(C)CCC[C@@]2(C)C3CC[C@]4(O)C[C@@]3(CCC21)[C@@H](O)[C@]4(O)CN` (stereo partly drawn) [Compound 17, (4R,6aR,7R,8R,9S,11bS)-Methyl 8-(Aminomethyl)-7,8,9-trihydroxy-4,11b-dimethyltetradecahydro-6a,9-methanocyclohepta[a]naphthalene-4-carboxylate], the solubility kinetic at 2 h [1] is reported as 535 ± 38.4 µM (≈ 204 µg/mL), the “Antiproliferative activity on the cancer cell panel, in words” value (shortened to “Antiproliferative activity”) [2] is reported as “any notable effect was not detectable” and the inhibition at 10 µM (HeLa cells) is reported as under 20%. It also gave an inhibition at 30 µM (HeLa cells) of 28.9 ± 2.72%, an inhibition at 10 µM (SiHa cells) of under 20% and an inhibition at 30 µM (SiHa cells) of under 20%. The inhibition at 10 µM (NIH/3T3 fibroblasts) was under 20%, the inhibition at 30 µM (NIH/3T3 fibroblasts) was under 20% and the melting point was 152 to 155 °C. The “PAMPA-GI MR (membrane retention)” value [3] was 1.5 ± 0.3%, the inhibition at 10 µM (MCF-7 cells) was under 20% and the inhibition at 30 µM (MCF-7 cells) was under 20%. The inhibition at 10 µM (MDA-MB-231 cells) was under 20%, the inhibition at 30 µM (MDA-MB-231 cells) was 30.4 ± 2.04% and the inhibition at 10 µM (A2780 cells) was under 20%. It also gave an inhibition at 30 µM (A2780 cells) of under 20%.
In the case of `COC(=O)[C@]1(C)CCC[C@@]2(C)C3CC[C@]4(O)C[C@@]3(CCC21)[C@@H](O)[C@]41CO1` (stereo partly drawn) [Compound 4b, (2’R,4R,6aR,7R,9S,11bS)-Methyl 7,9-Dihydroxy-4,11b-dimethyldodecahydro-1H-spiro[6a,9-methanocyclohepta[a]naphthalene-8,2’-oxirane]-4-carboxylate], the “Antiproliferative activity” value [2] is reported as “significant activity in higher concentrations only”, the “Antiproliferative effect on HeLa, in words” value (HeLa cells; 10 and 30 μM) is reported as “potent inhibition” and the inhibition at 10 µM (HeLa cells) is reported as 30.6 ± 1.09%. The inhibition at 30 µM (HeLa cells) was 95.35 ± 0.11%, the inhibition at 10 µM (SiHa cells) was under 20% and the inhibition at 30 µM (SiHa cells) was 58 ± 2.66%. For the same compound, the inhibition at 10 µM (NIH/3T3 fibroblasts) was under 20%, the inhibition at 30 µM (NIH/3T3 fibroblasts) was 37.2 ± 0.71% and the melting point was 182 to 185 °C. For the same compound, the inhibition at 10 µM (MCF-7 cells) was under 20%, the inhibition at 30 µM (MCF-7 cells) was 53.1 ± 2.2% and the inhibition at 10 µM (MDA-MB-231 cells) was under 20%. The inhibition at 30 µM (MDA-MB-231 cells) was 36.7 ± 1.62%, the inhibition at 10 µM (A2780 cells) was under 20% and the inhibition at 30 µM (A2780 cells) was 62 ± 0.78%.
In the case of `C=C1[C@H](O)[C@@]23CCC4[C@@](C)(CCC[C@@]4(C)C(=O)OC)C2CC[C@]1(O)C3` (stereo partly drawn) [Compound 3, (4R,6aR,7R,9S,11bS)-Methyl 7,9-Dihydroxy-4,11b-dimethyl-8-methylenetetradecahydro-6a,9-methanocyclohepta[a]naphthalene-4-carboxylate], the “Antiproliferative activity” value [2] is reported as “any notable effect was not detectable”, the inhibition at 10 µM (HeLa cells) is reported as under 20% and the inhibition at 30 µM (HeLa cells) is reported as 27.9 ± 2.3%. The inhibition at 10 µM (SiHa cells) was under 20%, the inhibition at 30 µM (SiHa cells) was 30.7 ± 2.71% and the inhibition at 10 µM (NIH/3T3 fibroblasts) was under 20%. It also gave an inhibition at 30 µM (NIH/3T3 fibroblasts) of under 20%, a melting point of 253 to 255 °C and an inhibition at 10 µM (MCF-7 cells) of under 20%. The inhibition at 30 µM (MCF-7 cells) was 49.2 ± 2.19%, the inhibition at 10 µM (MDA-MB-231 cells) was under 20% and the inhibition at 30 µM (MDA-MB-231 cells) was under 20%. The inhibition at 10 µM (A2780 cells) was under 20% and the inhibition at 30 µM (A2780 cells) was under 20%.
